From the NIST ThermoML archive (doi:10.1016/j.fluid.2013.08.029)

Test: xn = mol fraction of the nth substance listed
Details: 101 kPa, Liquid; for speed of sound: Sing-around technique in a fixed-path interferometer; for mass density: Vibrating tube method

CCCCCn1cc[n+](C)c1.F[B-](F)(F)F [1-methyl-3-pentyl-imidazolium tetrafluoroborate] + OCCO
Details | mass density [kg/m3] | speed of sound [m/s]
288.15 K, x1 = 0.0549 | 1127.51 | 1659
288.15 K, x1 = 0.1148 | 1135.95 | 1639.3
288.15 K, x1 = 0.2053 | 1145.61 | 1617.1
288.15 K, x1 = 0.3086 | 1153.94 | 1599.3
288.15 K, x1 = 0.4154 | 1160.64 | 1587.3
288.15 K, x1 = 0.5063 | 1165.13 | 1580.3
288.15 K, x1 = 0.6273 | 1170.27 | 1573.1
288.15 K, x1 = 0.7138 | 1173.4 | 1569.8
288.15 K, x1 = 0.7982 | 1176.33 | 1567.9
288.15 K, x1 = 0.8985 | 1179.69 | 1565.9
293.15 K, x1 = 0.0549 | 1123.89 | 1646.9
293.15 K, x1 = 0.1148 | 1132.23 | 1627.2
293.15 K, x1 = 0.2053 | 1141.81 | 1604.6
293.15 K, x1 = 0.3086 | 1150.12 | 1586.9
293.15 K, x1 = 0.4154 | 1156.84 | 1575
293.15 K, x1 = 0.5063 | 1161.54 | 1567.7
293.15 K, x1 = 0.6273 | 1166.54 | 1560.8
293.15 K, x1 = 0.7138 | 1169.75 | 1558.1
293.15 K, x1 = 0.7982 | 1172.71 | 1556.8
293.15 K, x1 = 0.8985 | 1176.11 | 1555.3
298.15 K, x1 = 0.0549 | 1120.27 | 1634.8
298.15 K, x1 = 0.1148 | 1128.52 | 1615.1
298.15 K, x1 = 0.2053 | 1138.01 | 1592.4
298.15 K, x1 = 0.3086 | 1146.31 | 1574.7
298.15 K, x1 = 0.4154 | 1153.05 | 1562.7
298.15 K, x1 = 0.5063 | 1157.88 | 1555.5
298.15 K, x1 = 0.6273 | 1162.86 | 1548.3
298.15 K, x1 = 0.7138 | 1166.1 | 1544.8
298.15 K, x1 = 0.7982 | 1169.1 | 1542.3
298.15 K, x1 = 0.8985 | 1172.64 | 1540.3
303.15 K, x1 = 0.0549 | 1116.63 | 1622.8
303.15 K, x1 = 0.1148 | 1124.81 | 1602.9
303.15 K, x1 = 0.2053 | 1134.22 | 1580.2
303.15 K, x1 = 0.3086 | 1142.5 | 1562.5
303.15 K, x1 = 0.4154 | 1149.27 | 1550.6
303.15 K, x1 = 0.5063 | 1154.21 | 1543.2
303.15 K, x1 = 0.6273 | 1159.19 | 1536.5
303.15 K, x1 = 0.7138 | 1162.48 | 1532.8
303.15 K, x1 = 0.7982 | 1165.5 | 1530.3
303.15 K, x1 = 0.8985 | 1169.12 | 1528.5
308.15 K, x1 = 0.0549 | 1113 | 1609.9
308.15 K, x1 = 0.1148 | 1121.09 | 1590.9
308.15 K, x1 = 0.2053 | 1130.44 | 1568.1
308.15 K, x1 = 0.3086 | 1138.71 | 1550.4
308.15 K, x1 = 0.4154 | 1145.51 | 1538.5
308.15 K, x1 = 0.5063 | 1150.46 | 1531.2
308.15 K, x1 = 0.6273 | 1155.52 | 1524.5
308.15 K, x1 = 0.7138 | 1158.87 | 1521
308.15 K, x1 = 0.7982 | 1161.91 | 1518.5
308.15 K, x1 = 0.8985 | 1165.59 | 1516.9
313.15 K, x1 = 0.0549 | 1109.35 | 1598.2
313.15 K, x1 = 0.1148 | 1117.37 | 1578.9
313.15 K, x1 = 0.2053 | 1126.66 | 1556.1
313.15 K, x1 = 0.3086 | 1134.93 | 1538.4
313.15 K, x1 = 0.4154 | 1141.76 | 1526.5
313.15 K, x1 = 0.5063 | 1146.71 | 1519.5
313.15 K, x1 = 0.6273 | 1151.88 | 1512.8
313.15 K, x1 = 0.7138 | 1155.26 | 1509.2
313.15 K, x1 = 0.7982 | 1158.35 | 1506.4
313.15 K, x1 = 0.8985 | 1162.04 | 1505.3
318.15 K, x1 = 0.0549 | 1105.67 | 1586.7
318.15 K, x1 = 0.1148 | 1113.63 | 1566.9
318.15 K, x1 = 0.2053 | 1122.88 | 1544.2
318.15 K, x1 = 0.3086 | 1131.15 | 1526.6
318.15 K, x1 = 0.4154 | 1138.02 | 1514.6
318.15 K, x1 = 0.5063 | 1142.8 | 1507.7
318.15 K, x1 = 0.6273 | 1148.22 | 1501.5
318.15 K, x1 = 0.7138 | 1151.65 | 1497.7
318.15 K, x1 = 0.7982 | 1154.78 | 1495.5
318.15 K, x1 = 0.8985 | 1158.38 | 1494
